Measured values reported in patent publication US12679849B2, “Macrocyclic compounds as STING agonists” (LUPIN LIMITED, priority 2019, dated 2026).

test system: IFNβ; experiment: Cytokine (IFNβ) secretion in serum samples from CT-26 tumor bearing BALB/c mice; type: in vivo, mouse; details: serum of CT-26 tumor-bearing BALB/c mice, 0.5 mg/kg, 3.5 h
Procedure: Quantification of the Cytokine Secretion in Serum Samples from the CT-26 Tumor Bearing BALB/c Mice
CT-26 tumor-bearing animals were administered with test compounds at the dose of 0.5 mg/kg, in a dose-volume of 5 ml/kg. Serum samples were collected at designated time points (3.5 h) and frozen at −80° C. till further estimation. Mouse serum samples were diluted appropriately with dilution buffer before estimation of IFNβ utilizing commercially available kits (VeriKine Mouse IFN Beta ELISA, PBL assay science, Catalog No 42400-2). Raw data values were corrected with the dilution factor and finally expressed in pg/mL.

Structure (SMILES) | IFNβ secretion
CCn1nc(C)cc1C(=O)Nc1nc2cc(C(N)=O)cc3c2n1C/C=C/Cn1c(NC(=O)c2cc(C)nn2CC)nc2cc(C(N)=O)cc(c21)OCC(N1C2CCC1COC2)CO3 [Compound 2, (E)-8-(3-oxa-8-azabicyclo[3.2.1]octan-8-yl)-1,15-bis(1-ethyl-3-methyl-1H-pyrazole-5-carboxamido)-8,9,16,19-tetrahydro-7H-6,10-dioxa-2,14,15a,19a-tetraazacyclopentadeca[3,2,1-cd:8,9,10-c′d′]diindene-4,12-dicarboxamide] | 28305 pg/mL

biological target: T1, Human STING (Homo sapiens, UniProt Q86WV6, G230A/H232R/R293Q/R71H); experiment: Stimulation of human STING signalling in THP1-Blue ISG SEAP reporter cell line; type: cell-based; details: THP1-Blue ISG cells, 18-20 hours incubation
T1 construct: using human THP1-Blue™ ISG SEAP based reporter cell line (Invivogen); host or cells: THP1-Blue ISG (human monocytic THP-1 derived SEAP reporter line)
T1 sequence (Q86WV6 whole entry R71H/G230A/H232R/R293Q): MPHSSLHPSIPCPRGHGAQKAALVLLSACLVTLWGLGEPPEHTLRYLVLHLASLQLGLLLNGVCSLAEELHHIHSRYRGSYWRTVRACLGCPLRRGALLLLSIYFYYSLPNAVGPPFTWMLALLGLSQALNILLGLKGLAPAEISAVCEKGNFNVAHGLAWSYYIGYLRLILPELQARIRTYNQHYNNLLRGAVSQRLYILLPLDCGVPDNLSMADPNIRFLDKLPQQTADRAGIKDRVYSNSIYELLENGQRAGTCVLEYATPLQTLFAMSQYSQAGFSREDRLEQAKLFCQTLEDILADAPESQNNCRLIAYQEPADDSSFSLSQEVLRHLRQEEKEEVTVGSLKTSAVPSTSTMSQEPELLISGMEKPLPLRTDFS
Procedure: Stimulation of Human STING Signalling in THP1 Cell Line
Compounds were tested for their STING activation potential using human THP1-Blue™ ISG SEAP based reporter cell line (Invivogen). Briefly, THP1-Blue ISG cells (100,000 cells/well) in 96 well plate were treated with varying concentrations of test and reference compounds and incubated at 37° C. with 5% CO2 for 18-20 hours. The control untreated cells were also set up. Post incubation, the cell supernatant was tested for SEAP (Secreted Embryonic Alkaline Phosphatase) activity using the QuantiBlue™ substrate reagent (Invivogen). The formation of blue coloured product was quantified by measuring absorbance at wavelength of 620 nm using PheraStar/Tecan reader. The average of duplicate readouts for each data point was plotted in GraphPad prism 6 against the concentration of test or reference compound to calculate EC50 value. The fold of SEAP induction or increase in luminescence at different data points was estimated against the un-stimulated cell control set.

Structure (SMILES) | EC50
CCn1nc(C)cc1C(=O)Nc1nc2cc(C(N)=O)cc3c2n1C/C=C/Cn1c(NC(=O)c2cc(C)nn2CC)nc2cc(C(N)=O)cc(c21)O[C@H]1CN[C@@H](CO3)C1 [Compound 20, (33R,35R,E)-12,62-bis(1-ethyl-3-methyl-1H-pyrazole-5-carboxamido)-11H,61H-2,5-dioxa-1,6(7,1)-dibenzo[d]imidazola-3(3,5)-pyrrolidinacyclodecaphan-8-ene-15,65-dicarboxamide] | 11 to 100 nM
CCn1nc(C)cc1C(=O)Nc1nc2cc(C(N)=O)cc3c2n1C/C=C/Cn1c(NC(=O)c2cc(C)nn2CCF)nc2cc(C(N)=O)cc(c21)OCC(N1CCOCC1)CO3 (stereo not drawn) [Compound 17, (E)-15-(1-ethyl-3-methyl-1H-pyrazole-5-carboxamido)-1-(1-(2-fluoroethyl)-3-methyl-1H-pyrazole-5-carboxamido)-8-morpholino-8,9,16,19-tetrahydro-7H-6,10-dioxa-2,14,15a,19a-tetraazacyclopentadeca[3,2,1-cd:8,9,10-c′d′]diindene-4,12-dicarboxamide] | 11 to 100 nM
CCn1nc(C)cc1C(=O)Nc1nc2cc(C(N)=O)cc3c2n1C/C=C/Cn1c(NC(=O)c2cc(C)nn2CC)nc2cc(C(N)=O)cc(c21)OCC(CN1CCOCC1)CO3 [Compound 16, (E)-1,15-bis(1-ethyl-3-methyl-1H-pyrazole-5-carboxamido)-8-(morpholinomethyl)-8,9,16,19-tetrahydro-7H-6,10-dioxa-2,14,15a,19a-tetraazacyclopentadeca[3,2,1-cd:8,9,10-c′d′]diindene-4,12-dicarboxamide] | 11 to 100 nM
CCn1nc(C)cc1C(=O)Nc1nc2cc(C(N)=O)cc3c2n1C/C=C/Cn1c(NC(=O)c2cc(C)nn2CC)nc2cc(C(N)=O)cc(c21)OCC(C1CCN(C)CC1)CO3 [Compound 9, (E)-1,15-bis(1-ethyl-3-methyl-1H-pyrazole-5-carboxamido)-8-(1-methylpiperidin-4-yl)-8,9,16,19-tetrahydro-7H-6,10-dioxa-2,14,15a,19a-tetraazacyclopentadeca[3,2,1-cd:8,9,10-c′d′]diindene-4,12-dicarboxamide] | 11 to 100 nM
CCn1nc(C)cc1C(=O)Nc1nc2cc(C(N)=O)cc3c2n1C/C=C/Cn1c(NC(=O)c2cc(C)nn2CC)nc2cc(C(N)=O)cc(c21)OCC(N1CCC(O)CC1)CO3 [Compound 22, (E)-1,15-bis(1-ethyl-3-methyl-1H-pyrazole-5-carboxamido)-8-(4-hydroxypiperidin-1-yl)-8,9,16,19-tetrahydro-7H-6,10-dioxa-2,14,15a,19a-tetraazacyclopentadeca[3,2,1-cd:8,9,10-c′d′]diindene-4,12-dicarboxamide] | 11 to 100 nM
CCn1nc(C)cc1C(=O)Nc1nc2cc(C(N)=O)cc3c2n1C/C=C/Cn1c(NC(=O)c2cc(C)nn2CC)nc2cc(C(N)=O)cc(c21)OCC(CCN1CCOCC1)CO3 [Compound 13, (E)-1,15-bis(1-ethyl-3-methyl-1H-pyrazole-5-carboxamido)-8-(2-morpholinoethyl)-8,9,16,19-tetrahydro-7H-6,10-dioxa-2,14,15a,19a-tetraazacyclopentadeca[3,2,1-cd:8,9,10-c′d′]diindene-4,12-dicarboxamide] | 11 to 100 nM
CCn1nc(C)cc1C(=O)Nc1nc2cc(C(N)=O)cc3c2n1C/C=C/Cn1c(NC(=O)c2cc(C)nn2CC)nc2cc(C(N)=O)cc(c21)OCC(N1CCC(F)(F)CC1)CO3 [Compound 4, (E)-8-(4,4-difluoropiperidin-1-yl)-1,15-bis(1-ethyl-3-methyl-1H-pyrazole-5-carboxamido)-8,9,16,19-tetrahydro-7H-6,10-dioxa-2,14,15a,19a-tetraazacyclopentadeca[3,2,1-cd:8,9,10-c′d′]diindene-4,12-dicarboxamide] | 11 to 100 nM
CCn1nc(C)cc1C(=O)Nc1nc2cc(C(N)=O)cc3c2n1C/C=C/Cn1c(NC(=O)c2cc(C)nn2CC)nc2cc(C(N)=O)cc(c21)OCC(N1CC[C@@H](O)C1)CO3 [Compound 12, (R,E)-1,15-bis(1-ethyl-3-methyl-1H-pyrazole-5-carboxamido)-8-(3-hydroxypyrrolidin-1-yl)-8,9,16,19-tetrahydro-7H-6,10-dioxa-2,14,15a,19a-tetraazacyclopentadeca[3,2,1-cd:8,9,10-c′d′]diindene-4,12-dicarboxamide] | 1 to 10 nM
CCn1nc(C)cc1C(=O)Nc1nc2cc(C(N)=O)cc3c2n1C/C=C/Cn1c(NC(=O)c2cc(C)nn2CC)nc2cc(C(N)=O)cc(c21)OCC(c1ccccn1)CO3 [Compound 36, (E)-1,15-bis(1-ethyl-3-methyl-1H-pyrazole-5-carboxamido)-8-(pyridin-2-yl)-8,9,16,19-tetrahydro-7H-6,10-dioxa-2,14,15a,19a-tetraazacyclopentadeca[3,2,1-cd:8,9,10-c′d′]diindene-4,12-dicarboxamidexamide] | 11 to 100 nM
CCn1nc(C)cc1C(=O)Nc1nc2cc(C(N)=O)cc3c2n1C/C=C/Cn1c(NC(=O)c2cc(C)nn2CC)nc2cc(C(N)=O)cc(c21)OCC(N1C2CCC1COC2)CO3 [Compound 2, (E)-8-(3-oxa-8-azabicyclo[3.2.1]octan-8-yl)-1,15-bis(1-ethyl-3-methyl-1H-pyrazole-5-carboxamido)-8,9,16,19-tetrahydro-7H-6,10-dioxa-2,14,15a,19a-tetraazacyclopentadeca[3,2,1-cd:8,9,10-c′d′]diindene-4,12-dicarboxamide] | 1 to 10 nM

The remaining lines, values ahead:

EC50 | Structure (SMILES)
1 to 10 nM | CCn1nc(C)cc1C(=O)Nc1nc2cc(C(N)=O)cc3c2n1C/C=C/Cn1c(NC(=O)c2cc(C)nn2CC)nc2cc(C(N)=O)cc(c21)OCC(N1CCC(C#N)C1)CO3 (stereo not drawn) [Compound 26, (E)-8-(3-cyanopyrrolidin-1-yl)-1,15-bis(1-ethyl-3-methyl-1H-pyrazole-5-carboxamido)-8,9,16,19-tetrahydro-7H-6,10-dioxa-2,14,15a,19a-tetraazacyclopentadeca[3,2,1-cd:8,9,10-c′d′]diindene-4,12-dicarboxamide]
1 to 10 nM | CCn1nc(C)cc1C(=O)Nc1nc2cc(C(N)=O)cc3c2n1C/C=C/Cn1c(NC(=O)c2cc(C)nn2CC)nc2cc(C(N)=O)cc(c21)OCC(N1CCOCC1)CO3 [Compound 3, (E)-1,15-bis(1-ethyl-3-methyl-1H-pyrazole-5-carboxamido)-8-morpholino-8,9,16,19-tetrahydro-7H-6,10-dioxa-2,14,15a,19a-tetraazacyclopentadeca[3,2,1-cd:8,9,10-c′d′]diindene-4,12-dicarboxamide]
1 to 10 nM | CCn1nc(C)cc1C(=O)Nc1nc2cc(C(N)=O)cc3c2n1C/C=C/Cn1c(NC(=O)c2cc(C)nn2CC)nc2cc(C(N)=O)cc(c21)OCC(N1CC[C@H](O)C1)CO3 [Compound 11, (S,E)-1,15-bis(1-ethyl-3-methyl-1H-pyrazole-5-carboxamido)-8-(3-hydroxypyrrolidin-1-yl)-8,9,16,19-tetrahydro-7H-6,10-dioxa-2,14,15a,19a-tetraazacyclopentadeca[3,2,1-cd:8,9,10-c′d′]diindene-4,12-dicarboxamide]
1 to 10 nM | CCn1nc(C)cc1C(=O)Nc1nc2cc(C(N)=O)cc3c2n1C/C=C/Cn1c(NC(=O)c2cc(C)nn2CC)nc2cc(C(N)=O)cc(c21)OCC(n1ccnc1)CO3 [Compound 19, (E)-1,15-bis(1-ethyl-3-methyl-1H-pyrazole-5-carboxamido)-8-(1H-imidazol-1-yl)-8,9,16,19-tetrahydro-7H-6,10-dioxa-2,14,15a,19a-tetraazacyclopentadeca[3,2,1-cd:8,9,10-c′d′]diindene-4,12-dicarboxamide]
1 to 10 nM | CCn1nc(C)cc1C(=O)Nc1nc2cc(C(N)=O)cc3c2n1C/C=C/Cn1c(NC(=O)c2cc(C)nn2CC)nc2cc(C(N)=O)cc(c21)OCC(N1CC[C@H](OC)C1)CO3 [Compound 6, (S,E)-1,15-bis(1-ethyl-3-methyl-1H-pyrazole-5-carboxamido)-8-(3-methoxypyrrolidin-1-yl)-8,9,16,19-tetrahydro-7H-6,10-dioxa-2,14,15a,19a-tetraazacyclopentadeca[3,2,1-cd:8,9,10-c′d′]diindene-4,12-dicarboxamide]
1 to 10 nM | CCn1nc(C)cc1C(=O)Nc1nc2cc(C(N)=O)cc3c2n1C/C=C/Cn1c(NC(=O)c2cc(C)nn2CC)nc2cc(C(N)=O)cc(c21)OCC(N1CC[C@@H](OC)C1)CO3 [Compound 35, (R,E)-1,15-bis(1-ethyl-3-methyl-1H-pyrazole-5-carboxamido)-8-(3-methoxypyrrolidin-1-yl)-8,9,16,19-tetrahydro-7H-6,10-dioxa-2,14,15a,19a-tetraazacyclopentadeca[3,2,1-cd:8,9,10-c′d′]diindene-4,12-dicarboxamide]
1 to 10 nM | CCn1nc(C)cc1C(=O)Nc1nc2cc(C(N)=O)cc3c2n1C/C=C/Cn1c(NC(=O)c2cc(C)nn2CC)nc2cc(C(N)=O)cc(c21)OCC(N1C[C@@H](C)O[C@@H](C)C1)CO3 [Compound 5, (E)-8-((2S,6R)-2,6-dimethylmorpholino)-1,15-bis(1-ethyl-3-methyl-1H-pyrazole-5-carboxamido)-8,9,16,19-tetrahydro-7H-6,10-dioxa-2,14,15a,19a-tetraazacyclopentadeca[3,2,1-cd:8,9,10-c′d′]diindene-4,12-dicarboxamide]
